Source: paper PMC10201364 (MicrobiologyOpen, 2023)

Assays:
[1] = test system: 274‐bp DNA fragment harboring the entire barR‐aminotransferase intergenic region (WT promoter); experiment: EMSA of Ah‐BarR with WT promoter fragment; set-up: species or system Acidianus hospitalis; settings: 5 mM β‐alanine added to binding reactions
Procedure: Electrophoretic mobility shift assays (EMSAs) were performed as described (Charlier & Bervoets, [2022]). Either the forward or the reverse primer was radioactively labeled, using fresh γ‐^32P‐ATP (Perkin Elmer) and T4 polynucleotide kinase (Thermo Scientific). Labeled promoter fragments were obtained by PCR using Taq DNA polymerase (Promega), a ^32P‐labeled primer, a non‐labeled second primer, and a plasmid template (Table A4). Labeled fragments were purified by acrylamide gel electrophoresis. EMSA reactions were prepared in protein‐DNA binding buffer (20 mM Tris‐HCl pH 8.0, 50 mM NaCl, 0.4 mM EDTA, 0.1 mM DTT, 1 mM MgCl2, 12.5% glycerol) with each reaction containing 1 µL (20 cps/µL) of ^32P‐labeled promoter fragment, an excess (25 µg/mL) of non‐labeled, nonspecific competitor DNA (sonicated salmon sperm DNA, Invitrogen), and purified Ah‐BarR protein. Amino acids were added to the reactions in the mentioned concentrations. […] Scans of the gels were analyzed by densitometry using ImageJ (Schneider et al., [2012]), after which GraphPad PRISM (version 9.3.1 for Windows, GraphPad Software, www.graphpad.com) was used to perform Hill curve fitting using nonlinear regression for saturated binding (one site, specific binding), and to determine apparent equilibrium dissociation constants K D.

[2] = molecular target: Ah‐BarR (P ah‐at aminotransferase promoter, mKate2 reporter) (Acidianus hospitalis, UniProt F4B5V3); experiment: cell-based
Sequence of Ah‐BarR (P ah‐at aminotransferase promoter, mKate2 reporter) (F4B5V3 1-165): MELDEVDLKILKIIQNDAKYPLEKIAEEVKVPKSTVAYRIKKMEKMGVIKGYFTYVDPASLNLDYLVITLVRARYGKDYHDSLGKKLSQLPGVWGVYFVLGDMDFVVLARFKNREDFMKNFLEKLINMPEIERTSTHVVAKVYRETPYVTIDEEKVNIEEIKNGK
Procedure: (§1) Reporter gene assays were performed as previously described (Bernauw et al., [2022]). pPRC6 and pITC variants (Table 1) were co‐transformed in E. coli MG1655 chemical competent cells using heat shock transformation. Transformant colonies of the Ah‐BarR biosensor strains were picked to inoculate wells of a transparent 96‐well plate (Greiner Bio‐One), each well filled with 200 µL of MOPS EZ Rich Defined medium (Teknova), prepared without the addition of the 5X EZ Supplement, after which the plate was incubated overnight in a ThermoMixer C (Eppendorf) at 30°C and 300 rpm. Next, a black 96‐well plate was filled with a naringenin solution prepared in ethanol (250 mg/L or 2.5 g/L), after which a Breathe‐Easy sealing membrane (Sigma‐Aldrich) was applied and the ethanol was evaporated in a ThermoMixer C (Eppendorf) at 75°C. […] Finally, the plate was sealed again using a Breathe‐Easy sealing membrane (Sigma‐Aldrich).
(§2) Plates were incubated at 30°C and 300 rpm for 40 h in a Synergy H1 microplate reader (BioTek) with measurements of OD600 and fluorescence (excitation wavelength: 588 nm, emission wavelength: 633 nm) being taken every 20 min. The gain was set to 140 for all measurements, except for the measurements with the amino acids (pools and separately), where the gain was set to 150. […] In addition, wells solely containing medium were measured as well to correct for the background signal.
(§3) Reporter expression was analyzed at t = 30 h, when all cultures had reached the stationary phase, by taking into account three subsequent time points (t–1, t, t+1). The corrected FL/OD600 value was calculated for each replicate (n = 4) as follows: FL/ODcor=FLt−1−FLmed,t−1/ODt−1−ODmed,t−1+FLt−FLmed,t/ODt−ODmed,t+FLt+1−FLmed,t+1/ODt+1−ODmed,t+1/3
(§4) Response curves were fitted to a Hill function of the shape P(M)=b+aM^n/θ^n+M^nforaβ−alanine−inducible responseb+aθ^n/θ^n+M^nforaβ−alanine−repressible response according to a previously published procedure (Landry et al., [2018]) with minor adaptations. […] Briefly, lmfit 1.1.0 was used to fit all replicates of a response curve to the appropriate Hill function using the Levenberg‐Marquardt algorithm (Moré, [1978]; Newville et al., [2016]). […] The dynamic range was estimated as μ=a/b .

[3] = molecular target: Ah‐BarR (P ah‐barR promoter, mKate2 reporter) (Acidianus hospitalis, UniProt F4B5V3); experiment: cell-based
Sequence of Ah‐BarR (P ah‐barR promoter, mKate2 reporter) (F4B5V3 1-165): as above
Procedure: as §1, §2, §3, §4

[4] = molecular target: Ah‐BarR M103A (P ah‐barR promoter, mKate2 reporter) (Acidianus hospitalis, UniProt F4B5V3, M103A); experiment: cell-based
Sequence of Ah‐BarR M103A (P ah‐barR promoter, mKate2 reporter) (F4B5V3 entry or part of it M103A): as the sequence (F4B5V3 1-165) above, with M103A counted along it
Procedure: as §1, §2, §3, §4

[5] = molecular target: Ah‐BarR T134A (P ah‐barR promoter, mKate2 reporter) (Acidianus hospitalis, UniProt F4B5V3, T134A); experiment: cell-based
Sequence of Ah‐BarR T134A (P ah‐barR promoter, mKate2 reporter) (F4B5V3 entry or part of it T134A): as the sequence (F4B5V3 1-165) above, with T134A counted along it
Procedure: as §1, §2, §3, §4

[6] = molecular target: Ah‐BarR T136A (P ah‐barR promoter, mKate2 reporter) (Acidianus hospitalis, UniProt F4B5V3, T136A); experiment: cell-based
Sequence of Ah‐BarR T136A (P ah‐barR promoter, mKate2 reporter) (F4B5V3 entry or part of it T136A): as the sequence (F4B5V3 1-165) above, with T136A counted along it
Procedure: as §1, §2, §3, §4

[7] = molecular target: Ah‐BarR trunc (P ah‐barR promoter, mKate2 reporter) (Acidianus hospitalis, UniProt F4B5V3)
Sequence of Ah‐BarR trunc (P ah‐barR promoter, mKate2 reporter) (F4B5V3 entry or part of it): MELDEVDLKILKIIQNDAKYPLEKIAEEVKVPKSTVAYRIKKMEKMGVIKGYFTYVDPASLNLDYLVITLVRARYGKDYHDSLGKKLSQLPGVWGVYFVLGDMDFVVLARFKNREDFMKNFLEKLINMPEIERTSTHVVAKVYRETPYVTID
Procedure: as §1, §2, §3, §4

[8] = molecular target: Ah‐BarR (S. acidocaldarius promoter P sa‐at, mKate2 reporter) (Acidianus hospitalis, UniProt F4B5V3); experiment: cell-based
Sequence of Ah‐BarR (S. acidocaldarius promoter P sa‐at, mKate2 reporter) (F4B5V3 1-165): as the sequence (F4B5V3 1-165) above
Procedure: as §1, §2, §3, §4
(§5) Additional in vivo experiments were performed on strains BS3 and BS4 using the S. acidocaldarius promoters P sa‐barR and P sa‐at , respectively, in combination with Ah‐BarR.

[9] = molecular target: Ah‐BarR (S. acidocaldarius promoter P sa‐barR, mKate2 reporter) (Acidianus hospitalis, UniProt F4B5V3); experiment: cell-based
Sequence of Ah‐BarR (S. acidocaldarius promoter P sa‐barR, mKate2 reporter) (F4B5V3 1-165): as above
Procedure: as §1, §2, §3, §4, §5

[10] = BS2, β‐alanine 0–10 mM, 20 mg/L naringenin, Hill fit
[11] = BS1, β‐alanine 0–10 mM, 20 mg/L naringenin, t = 30 h, Hill fit
[12] = BS1 M103A, β‐alanine 0–10 mM, 20 mg/L naringenin, Hill fit
[13] = BS1 T134A, β‐alanine 0–10 mM, 20 mg/L naringenin, Hill fit
[14] = BS1 T136A, β‐alanine 0–10 mM, 20 mg/L naringenin, Hill fit
[15] = BS4, β‐alanine 0–10 mM, 20 mg/L naringenin, Hill fit
[16] = BS3, β‐alanine 0–10 mM, 20 mg/L naringenin, Hill fit

For `NCCC(=O)O` [β‐alanine], the “effect of β‐alanine on formation of Ah‐BarR‐DNA complexes” value [1] was “did not significantly alter”, the EC50 [2] was 110 µM and the Hill coefficient n ([2]; BS2, 20 mg/L naringenin) was 1.62. For the same compound, the “Dynamic range µ” value ([2]; BS2, µ = a/b) was 1.58, the “Basal fluorescence output b” value [2, 10] was 313 RFU and the “Maximum fluorescence increase a” value [2, 10] was 494 RFU. The EC50 [3] was 370 µM, the Hill coefficient n ([3]; BS1, 20 mg/L naringenin) was 1.77 and the “Dynamic range µ” value ([3]; BS1, µ = a/b) was 3.07. For the same compound, the “Basal fluorescence output b” value [3, 11] was 2226 RFU, the “Maximum fluorescence increase a” value [3, 11] was 6828 RFU and the “ligand specificity: effect on transcriptional regulation of barR and at” value ([3]; BS1 and BS2 strains, 20 mg/L naringenin, individual amino acids of pools 1 and 7 at 3/5 mM) was “specifically ascribed to β‐alanine”. For the same compound, the EC50 [4] was 1350 µM, the Hill coefficient n ([4]; BS1 M103A, 20 mg/L naringenin) was 1.88 and the “Dynamic range µ” value ([4]; BS1 M103A, µ = a/b) was 3.25. The “Basal fluorescence output b” value [4, 12] was 2289 RFU, the “Maximum fluorescence increase a” value [4, 12] was 7429 RFU and the EC50 [5] was 1610 µM. The Hill coefficient n ([5]; BS1 T134A, 20 mg/L naringenin) was 1.68, the “Dynamic range µ” value ([5]; BS1 T134A, µ = a/b) was 4.06 and the “Basal fluorescence output b” value [5, 13] was 2145 RFU. For the same compound, the “Maximum fluorescence increase a” value [5, 13] was 8703 RFU, the EC50 [6] was 960 µM and the Hill coefficient n ([6]; BS1 T136A, 20 mg/L naringenin) was 1.36. For the same compound, the “Dynamic range µ” value ([6]; BS1 T136A, µ = a/b) was 3.31, the “Basal fluorescence output b” value [6, 14] was 2469 RFU and the “Maximum fluorescence increase a” value [6, 14] was 8171 RFU. The “Basal fluorescence output b” value [7] was 2485 RFU, the “Dynamic range µ” value [7] was 3.56 and the Hill coefficient n [7] was 1.60. The “Maximum fluorescence increase a” value [7] was 8840 RFU, the EC50 ([7]; read-out: Threshold θ, BS1 trunc, 20 mg/L naringenin) was 260 µM and the EC50 [8] was 90 µM. The Hill coefficient n ([8]; BS4, 20 mg/L naringenin) was 2.99, the “Dynamic range µ” value ([8]; BS4, µ = a/b) was 5.15 and the “Basal fluorescence output b” value [8, 15] was 13,873 RFU. The “Maximum fluorescence increase a” value [8, 15] was 71,426 RFU, the EC50 [9] was 100 µM and the Hill coefficient n ([9]; BS3, 20 mg/L naringenin) was 2.00. The “Dynamic range µ” value ([9]; BS3, µ = a/b) was 1.17, the “Basal fluorescence output b” value [9, 16] was 4595 RFU and the “Maximum fluorescence increase a” value [9, 16] was 5355 RFU.
